What all share (type): cell-based
Test [1] concerns the target T1, human Nav1.5 channels stably expressed in HEK 293 cells (Homo sapiens, UniProt Q14524).
T1 construct: expressed in transfected cells
As to the kind of experiment: IonWorks Quattro automated patch-clamp, sodium current, inactivated state block. Particulars: selectivity over Nav1.5. Here is the method:
(§1) Compounds were tested on human Nav1.7 and Nav1.5 channels stably expressed in HEK 293 cells. […] Cells were sealed on a planar substrate using the Population Patch Plate (PPC) technology. Electrical access was obtained using both nystatin and amphotericin. A double-pulse protocol was used for the determination of IC50 values for inactivated state block. Nav1.7 and Nav1.5 expressing cells were voltage clamped at −100 mV and −110 mV, respectively. A depolarizing prepulse to −10 mV (Nav1.7) or −30 mV (Nav1.5) for 1000 ms followed by a 10 ms repolarization to −100 mV (Nav1.7) or −110 mV (Nav1.5) was given to generate fractional channel inactivation of ˜50%, followed by a 10 ms test pulse to −10 mV (Nav1.7) or −30 mV (Nav1.5) to measure peak current in control conditions and after compound addition. The following recording solutions were used (mM). External: 150 NaCl, 2 CaCl2, 5 KCl, 1 Mg Cl2, 10 HEPES, 12 Dextrose; internal: 120 CsF, 30 CsCl, 10 EGTA, 5 HEPES, 5 NaF, 2 MgCl2.
(§2) For all electrophysiology experiments, offline analysis was used to correct for current rundown and to determine percent inhibition as a function of drug concentration. IC50 values were determined by fitting to the Hill equation.
(In patch-clamp work, channel activity is measured electrically.)

Test [2] has as its target T2, human Nav1.7 channels stably expressed in HEK 293 cells (Homo sapiens, UniProt Q15858).
T2 construct: expressed in transfected cells
The test is described as above. As to conditions: read-out: potency for the Nav 1.7 sodium ion channel (as measured by IonWorks). On the procedure:
as §1, §2

The target of test [3] is T1, human Nav1.5 channels stably expressed in HEK 293 cells. As to the kind of experiment: PatchXpress 7000 automated patch-clamp, sodium current. As to conditions: selectivity over Nav1.5. Summed up:
(§3)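 IC50 values came from Hill-equation fits of rundown-corrected inhibition. PatchXpress recordings at 22° C held cells 20 mV negative to V0.5 inact and applied 10 Hz trains of 30 ms steps to −20 mV (Nav1.7) or an 8000 ms prepulse 7 mV positive to V0.5 inact. […]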

Test [4] concerns the target T2, human Nav1.7 channels stably expressed in HEK 293 cells. The description is as above. As to conditions: 22° C., read-out: potency for the Nav 1.7 sodium ion channel (as measured by PatchXpress). An outline of the steps:
as §3

pIC50: −log10 of the molar value.

T2 sequence (Q15858 whole entry): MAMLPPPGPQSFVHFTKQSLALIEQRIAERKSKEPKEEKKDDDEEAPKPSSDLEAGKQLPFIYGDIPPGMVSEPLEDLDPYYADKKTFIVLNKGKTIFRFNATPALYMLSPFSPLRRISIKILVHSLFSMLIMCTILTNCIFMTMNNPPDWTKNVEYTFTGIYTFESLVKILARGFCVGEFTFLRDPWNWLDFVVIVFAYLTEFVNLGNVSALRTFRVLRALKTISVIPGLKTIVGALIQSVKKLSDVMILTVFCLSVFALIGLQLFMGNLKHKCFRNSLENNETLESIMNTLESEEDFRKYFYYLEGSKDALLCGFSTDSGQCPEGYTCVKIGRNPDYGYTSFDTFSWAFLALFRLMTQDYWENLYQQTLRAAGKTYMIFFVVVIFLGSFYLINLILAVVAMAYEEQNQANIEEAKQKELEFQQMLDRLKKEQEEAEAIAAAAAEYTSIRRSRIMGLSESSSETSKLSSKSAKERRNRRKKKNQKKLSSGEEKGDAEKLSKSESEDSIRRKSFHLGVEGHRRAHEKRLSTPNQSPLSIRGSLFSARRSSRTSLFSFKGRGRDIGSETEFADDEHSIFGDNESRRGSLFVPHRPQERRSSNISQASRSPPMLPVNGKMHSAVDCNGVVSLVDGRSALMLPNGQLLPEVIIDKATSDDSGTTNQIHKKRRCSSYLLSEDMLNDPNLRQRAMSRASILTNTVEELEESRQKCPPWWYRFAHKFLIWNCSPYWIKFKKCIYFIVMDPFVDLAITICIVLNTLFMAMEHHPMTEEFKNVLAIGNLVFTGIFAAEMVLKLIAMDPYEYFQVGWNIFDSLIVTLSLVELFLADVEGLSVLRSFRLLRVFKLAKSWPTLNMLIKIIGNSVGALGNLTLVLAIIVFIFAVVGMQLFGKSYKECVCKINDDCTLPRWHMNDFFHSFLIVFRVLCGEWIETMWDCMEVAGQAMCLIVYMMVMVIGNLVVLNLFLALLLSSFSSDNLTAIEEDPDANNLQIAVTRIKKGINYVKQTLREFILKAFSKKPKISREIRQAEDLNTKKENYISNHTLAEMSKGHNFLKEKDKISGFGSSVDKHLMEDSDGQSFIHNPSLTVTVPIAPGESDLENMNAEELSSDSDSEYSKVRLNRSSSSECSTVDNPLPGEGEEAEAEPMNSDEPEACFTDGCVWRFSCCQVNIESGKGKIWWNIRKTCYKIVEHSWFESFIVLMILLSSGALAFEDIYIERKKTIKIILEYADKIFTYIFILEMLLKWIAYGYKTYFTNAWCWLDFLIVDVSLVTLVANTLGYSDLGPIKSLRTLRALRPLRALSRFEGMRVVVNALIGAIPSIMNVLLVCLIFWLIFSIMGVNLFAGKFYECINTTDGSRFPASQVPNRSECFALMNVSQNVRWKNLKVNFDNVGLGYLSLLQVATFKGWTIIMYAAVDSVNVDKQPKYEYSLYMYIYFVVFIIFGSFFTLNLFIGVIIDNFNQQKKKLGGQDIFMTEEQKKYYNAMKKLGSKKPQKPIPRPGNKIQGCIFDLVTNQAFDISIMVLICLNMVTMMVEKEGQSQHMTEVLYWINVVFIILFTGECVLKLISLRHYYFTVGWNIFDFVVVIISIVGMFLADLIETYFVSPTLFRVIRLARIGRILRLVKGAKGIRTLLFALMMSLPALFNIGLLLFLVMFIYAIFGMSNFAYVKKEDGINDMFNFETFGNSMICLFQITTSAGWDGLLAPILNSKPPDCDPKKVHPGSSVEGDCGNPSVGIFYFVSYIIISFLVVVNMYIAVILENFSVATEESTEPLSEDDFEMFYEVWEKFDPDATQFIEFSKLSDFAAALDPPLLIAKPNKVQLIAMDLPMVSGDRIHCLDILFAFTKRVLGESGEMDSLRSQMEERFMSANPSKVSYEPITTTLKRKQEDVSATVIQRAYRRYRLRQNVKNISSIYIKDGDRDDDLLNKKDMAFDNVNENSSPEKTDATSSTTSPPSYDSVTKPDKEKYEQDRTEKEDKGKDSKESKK
T1 sequence (Q14524 whole entry): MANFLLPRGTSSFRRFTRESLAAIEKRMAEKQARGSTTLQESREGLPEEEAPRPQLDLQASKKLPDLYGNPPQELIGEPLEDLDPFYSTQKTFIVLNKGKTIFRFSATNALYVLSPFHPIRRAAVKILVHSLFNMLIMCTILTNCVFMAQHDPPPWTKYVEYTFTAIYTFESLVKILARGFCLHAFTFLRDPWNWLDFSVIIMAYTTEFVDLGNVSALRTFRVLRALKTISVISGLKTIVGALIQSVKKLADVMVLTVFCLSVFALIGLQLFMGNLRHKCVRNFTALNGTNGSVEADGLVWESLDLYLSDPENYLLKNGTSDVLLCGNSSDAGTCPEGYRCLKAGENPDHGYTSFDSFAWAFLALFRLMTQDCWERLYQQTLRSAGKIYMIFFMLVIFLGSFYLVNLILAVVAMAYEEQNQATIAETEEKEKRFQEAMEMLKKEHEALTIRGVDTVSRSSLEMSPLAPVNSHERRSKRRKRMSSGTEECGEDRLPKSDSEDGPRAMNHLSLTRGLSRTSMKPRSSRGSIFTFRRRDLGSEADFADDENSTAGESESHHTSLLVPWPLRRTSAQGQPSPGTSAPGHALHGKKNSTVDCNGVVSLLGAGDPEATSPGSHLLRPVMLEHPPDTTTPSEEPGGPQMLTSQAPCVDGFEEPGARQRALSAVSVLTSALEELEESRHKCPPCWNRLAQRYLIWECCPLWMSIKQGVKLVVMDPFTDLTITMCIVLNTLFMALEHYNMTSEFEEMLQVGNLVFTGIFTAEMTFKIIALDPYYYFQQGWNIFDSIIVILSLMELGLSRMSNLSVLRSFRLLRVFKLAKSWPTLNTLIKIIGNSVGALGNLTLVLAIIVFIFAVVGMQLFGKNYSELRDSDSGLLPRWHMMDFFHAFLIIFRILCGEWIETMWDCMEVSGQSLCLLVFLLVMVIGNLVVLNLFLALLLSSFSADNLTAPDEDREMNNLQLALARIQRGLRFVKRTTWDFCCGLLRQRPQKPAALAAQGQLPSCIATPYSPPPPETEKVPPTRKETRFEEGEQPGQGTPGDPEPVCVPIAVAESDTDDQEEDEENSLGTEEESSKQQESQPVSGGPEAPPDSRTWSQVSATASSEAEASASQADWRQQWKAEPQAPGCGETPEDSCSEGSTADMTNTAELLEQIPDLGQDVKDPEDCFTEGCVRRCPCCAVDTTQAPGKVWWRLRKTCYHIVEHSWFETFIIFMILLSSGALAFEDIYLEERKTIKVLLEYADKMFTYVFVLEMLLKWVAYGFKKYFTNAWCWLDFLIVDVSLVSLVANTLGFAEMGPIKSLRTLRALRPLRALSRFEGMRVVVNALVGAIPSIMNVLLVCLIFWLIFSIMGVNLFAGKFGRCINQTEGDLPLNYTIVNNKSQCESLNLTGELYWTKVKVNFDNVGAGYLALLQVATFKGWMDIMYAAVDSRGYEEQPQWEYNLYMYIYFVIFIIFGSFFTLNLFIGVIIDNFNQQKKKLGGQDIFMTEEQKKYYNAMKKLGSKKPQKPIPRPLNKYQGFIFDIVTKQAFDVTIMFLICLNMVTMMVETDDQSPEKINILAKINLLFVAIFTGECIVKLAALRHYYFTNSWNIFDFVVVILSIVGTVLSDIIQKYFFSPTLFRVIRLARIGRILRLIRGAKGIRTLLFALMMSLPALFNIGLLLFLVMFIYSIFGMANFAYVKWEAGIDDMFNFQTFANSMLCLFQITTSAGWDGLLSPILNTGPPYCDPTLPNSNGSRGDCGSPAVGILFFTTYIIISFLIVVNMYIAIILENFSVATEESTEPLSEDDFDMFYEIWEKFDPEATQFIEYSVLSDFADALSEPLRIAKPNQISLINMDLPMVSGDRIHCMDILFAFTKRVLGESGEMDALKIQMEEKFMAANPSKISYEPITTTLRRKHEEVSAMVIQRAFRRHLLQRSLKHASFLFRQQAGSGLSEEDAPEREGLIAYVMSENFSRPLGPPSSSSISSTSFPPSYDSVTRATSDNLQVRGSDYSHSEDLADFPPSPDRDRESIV

With `O=c1oc2cc(S(=O)(=O)Nc3ncns3)ccc2n1Cc1ccccc1C1=CC2CCC(C1)N2` (centres unmarked) [Compound 3-7, 3-[2-(8-azabicyclo[3.2.1]oct-2-en-3-yl)benzyl]-2-oxo-N-1,2,4-thiadiazol-5-yl-2,3-dihydro-1,3-benzoxazole-6-sulfonamide], the “ratio of Nav 1.5:Nav 1.7 potency, determined by IonWorks measurement” value (“ratio … by IonWorks measurement” below) in test [1] is given as above 113. Further, the results for the pIC50 in test [2] and in test [4] were 6.53 and 6.86, respectively. Also, the “ratio of Nav 1.5:Nav 1.7 potency, determined by PatchXpress measurement” value (“ratio … by PatchXpress measurement” for short) in test [3] is reported as above 219.

In the case of `O=c1oc2cc(S(=O)(=O)Nc3ncns3)ccc2n1Cc1ccccc1-c1cccc2c1CCNC2` [Compound 3-8, 2-oxo-3-[2-(1,2,3,4-tetrahydroisoquinolin-5-yl)benzyl]-N-1,2,4-thiadiazol-5-yl-2,3-dihydro-1,3-benzoxazole-6-sulfonamide], in test [1], the “ratio … by IonWorks measurement” value is recorded as above 103. For the same compound, the values for the pIC50 in test [2] and in test [4] were 6.49 and 6.56, respectively. Moreover, the “ratio … by PatchXpress measurement” value in test [3] is above 108.

As to `NC/C=C/c1cc(Cl)ccc1Cn1c(=O)oc2cc(S(=O)(=O)Nc3ncns3)ccc21` [Compound 3-11, 3-{2-[(1E)-3-aminoprop-1-en-1-yl]-4-chlorobenzyl}-2-oxo-N-1,2,4-thiadiazol-5-yl-2,3-dihydro-1,3-benzoxazole-6-sulfonamide], the “ratio … by IonWorks measurement” value in test [1] is above 56. In addition, the pIC50 is 6.22 in test [2] and 6.66 in test [4]. Further, in test [3], the “ratio … by PatchXpress measurement” value was 87.

As for `C[C@H](c1cccc2c1CNCC2)n1c(=O)oc2cc(S(=O)(=O)Nc3ncns3)ccc21` [Compound 4-4, 2-Oxo-3-[(1R)-1-(1,2,3,4-tetrahydroisoquinolin-8-yl)ethyl]-N-(1,2,4-thiadiazol-5-yl)-2,3-dihydro-1,3-benzoxazole-6-sulfonamide], the “ratio … by IonWorks measurement” value in test [1] was 4494. The pIC50 in test [2] was 8.30; in test [4], 7.59. In addition, the “ratio … by PatchXpress measurement” value in test [3] was above 1153.

For the compound `CC(c1ccccc1)n1c(=O)oc2cc(S(=O)(=O)Nc3ncns3)ccc21` (centres unmarked) [Compound 4-6, 2-oxo-3-(1-phenylethyl)-N-1,2,4-thiadiazol-5-yl-2,3-dihydro-1,3-benzoxazole-6-sulfonamide], the “ratio … by IonWorks measurement” value in test [1] is given as above 35. In addition, the pIC50 is 6.02 in test [2] and 6.47 in test [4]. The “ratio … by PatchXpress measurement” value in test [3] was above 88.

As to `C[C@H](c1ccccc1)n1c(=O)oc2cc(S(=O)(=O)Nc3ncns3)ccc21` [Compound 4-7, 2-oxo-3-[(1R)-1-phenylethyl]-N-1,2,4-thiadiazol-5-yl-2,3-dihydro-1,3-benzoxazole-6-sulfonamide], the “ratio … by IonWorks measurement” value in test [1] amounted to 28. The pIC50 was 6.17 in test [2] and 7.13 in test [4]. Moreover, in test [3], the “ratio … by PatchXpress measurement” value is on record as 287.

`CC(c1ccccc1C(F)(F)F)n1c(=O)oc2cc(S(=O)(=O)Nc3ncns3)ccc21` (centres unmarked) [Compound 4-9, 2-oxo-N-1,2,4-thiadiazol-5-yl-3-{1-[2-(trifluoromethyl)phenyl]ethyl}-2,3-dihydro-1,3-benzoxazole-6-sulfonamide]: the “ratio … by IonWorks measurement” value in test [1] is recorded as 22. In addition, the figures for the pIC50 in test [2] and in test [4] were 5.94 and 5.58, respectively. Also, the “ratio … by PatchXpress measurement” value in test [3] is above 11.

As for `CC(CCc1ccccc1)n1c(=O)oc2cc(S(=O)(=O)Nc3ncns3)ccc21` (centres unmarked) [Compound 4-11, 3-(1-methyl-3-phenylpropyl)-2-oxo-N-1,2,4-thiadiazol-5-yl-2,3-dihydro-1,3-benzoxazole-6-sulfonamide], in test [1], the “ratio … by IonWorks measurement” value was 9. The pIC50 in test [2] is 5.76; in test [4] it was 5.75. The “ratio … by PatchXpress measurement” value in test [3] was above 17.

For `CC(c1cccc2c1CNCC2)n1c(=O)oc2cc(S(=O)(=O)Nc3ncns3)ccc21` (centres unmarked) [Compound 4-14, 2-oxo-3-[1-(1,2,3,4-tetrahydroisoquinolin-8-yl)ethyl]-N-1,2,4-thiadiazol-5-yl-2,3-dihydro-1,3-benzoxazole-6-sulfonamide], the “ratio … by IonWorks measurement” value in test [1] was above 1338. Besides, the pIC50 in test [2] was 7.60; in test [4], 7.21. Also, in test [3], the “ratio … by PatchXpress measurement” value is recorded as above 495.

`C[C@@H](c1cccc2c1CNCC2)n1c(=O)oc2cc(S(=O)(=O)Nc3ncns3)ccc21` [Compound 4-15, 2-oxo-3-[(1S)-1-(1,2,3,4-tetrahydroisoquinolin-8-yl)ethyl]-N-1,2,4-thiadiazol-5-yl-2,3-dihydro-1,3-benzoxazole-6-sulfonamide]: the “ratio … by IonWorks measurement” value in test [1] is above 451. For the same compound, the values for the pIC50 in test [2] and in test [4] were 7.14 and 6.46, respectively. In test [3], the “ratio … by PatchXpress measurement” value is reported as above 87.

On to `CN1CCc2cccc(Cn3c(=O)oc4cc(S(=O)(=O)Nc5ncns5)ccc43)c2C1` [Compound 6-1, 3-[(2-Methyl-1,2,3,4-tetrahydroisoquinolin-8-yl)methyl]-2-oxo-N-(1,2,4-thiadiazol-5-yl)-2,3-dihydro-1,3-benzoxazole-6-sulfonamide], for which the “ratio … by IonWorks measurement” value in test [1] was 88. In addition, the pIC50 in test [2] is 6.44; in test [4] it was 6.06. The “ratio … by PatchXpress measurement” value in test [3] is listed as above 35.

With `CCN1CCc2cccc(Cn3c(=O)oc4cc(S(=O)(=O)Nc5ncns5)ccc43)c2C1` [Compound 6-2, 3-[(2-ethyl-1,2,3,4-tetrahydroisoquinolin-8-yl)methyl]-2-oxo-N-1,2,4-thiadiazol-5-yl-2,3-dihydro-1,3-benzoxazole-6-sulfonamide], the “ratio … by IonWorks measurement” value in test [1] is above 98. Also, the pIC50 in test [2] is 6.47; in test [4], 6.63. For the same compound, the “ratio … by PatchXpress measurement” value in test [3] is listed as 71.

`O=c1oc2cc(S(=O)(=O)Nc3ncns3)ccc2n1Cc1cccc2c1CN(CC1CC1)CC2` [Compound 6-4, 3-{[2-(cyclopropylmethyl)-1,2,3,4-tetrahydroisoquinolin-8-yl]methyl}-2-oxo-N-1,2,4-thiadiazol-5-yl-2,3-dihydro-1,3-benzoxazole-6-sulfonamide]: the “ratio … by IonWorks measurement” value in test [1] is given as 54. Further, the pIC50 in test [2] is 6.33; in test [4], 6.20. The “ratio … by PatchXpress measurement” value in test [3] amounted to 37.

As to `CS(=O)(=O)N1CCc2cccc(Cn3c(=O)oc4cc(S(=O)(=O)Nc5ncns5)ccc43)c2C1` [Compound 8-4, 3-{[2-(Methylsulfonyl)-1,2,3,4-tetrahydroisoquinolin-8-yl]methyl}-2-oxo-N-(1,2,4-thiadiazol-5-yl)-2,3-dihydro-1,3-benzoxazole-6-sulfonamide], in test [1], the “ratio … by IonWorks measurement” value amounted to 20. The pIC50 was 6.28 in test [2] and 6.60 in test [4]. Further, in test [3], the “ratio … by PatchXpress measurement” value is given as above 1180.

As to `CC(=O)N1CCc2cccc(Cn3c(=O)oc4cc(S(=O)(=O)Nc5ncns5)ccc43)c2C1` [Compound 9-1, 3-[(2-Acetyl-1,2,3,4-tetrahydroisoquinolin-8-yl)methyl]-2-oxo-N-(1,2,4-thiadiazol-5-yl)-2,3-dihydro-1,3-benzoxazole-6-sulfonamide], the “ratio … by IonWorks measurement” value in test [1] amounted to 35. The pIC50 in test [2] is 6.20; in test [4], 6.28. The “ratio … by PatchXpress measurement” value in test [3] is recorded as above 57.

`O=C(C1CC1)N1CCc2cccc(Cn3c(=O)oc4cc(S(=O)(=O)Nc5ncns5)ccc43)c2C1` [Compound 10-1, 3-{[2-(Cyclopropylcarbonyl)-1,2,3,4-tetrahydroisoquinolin-8-yl]methyl}-2-oxo-N-1,2,4-thiadiazol-5-yl-2,3-dihydro-1,3-benzoxazole-6-sulfonamide]: the “ratio … by IonWorks measurement” value in test [1] is listed as above 50. Further, the values for the pIC50 in test [2] and in test [4] were 6.18 and 6.22, respectively. For the same compound, the “ratio … by PatchXpress measurement” value in test [3] was 14.

Take `O=c1oc2cc(S(=O)(=O)Nc3ncns3)c(F)cc2n1Cc1cccc2c1CNCC2` [Compound 11-5, 5-Fluoro-2-oxo-3-(1,2,3,4-tetrahydroisoquinolin-8-ylmethyl)-N-(1,2,4-thiadiazol-5-yl)-2,3-dihydro-1,3-benzoxazole-6-sulfonamide]: the “ratio … by IonWorks measurement” value in test [1] came to 182. Further, the pIC50 is 7.00 in test [2] and 7.16 in test [4]. The “ratio … by PatchXpress measurement” value in test [3] worked out at 139.

These data come from patent US9273040B2 (Merck Sharp & Dohme Corp., priority 2011, dated 2016).
